Like-named read-outs stand apart in the source and are kept apart here. Numbered stars: 1 amine (or outer) side, 2 acyl side, 3 side chain; on linkers, the order of the positions; unused ones are H or OH. Bridge positions count the residues as written; N and C are the ends. Square brackets hold non-standard residues; d marks the D form. Peptide text beside a SMILES is read from it. * marks the point of attachment. TATA = O=C(CC[*:1])N1CN(C(=O)CC[*:2])CN(C(=O)CC[*:3])C1; X1 = O=C(O)CN1CCN(CC(=O)O)CCN([C@H](CCC(=O)*)C(=O)O)CC1; 1Nal = N[C@@H](Cc1cccc2ccccc12)C(=O)O; Hyp = O=C(O)[C@@H]1C[C@@H](O)CN1; hArg = N=C(N)NCCCC[C@H](N)C(=O)O; hSer = N[C@@H](CCO)C(=O)O; Nle = CCCC[C@H](N)C(=O)O
Experiments:
[1] = target: T1, recombinant human nectin-4 (Homo sapiens, UniProt Q96NY8); assay: FA-based competitive binding assay with probe 1a; details: for Hill coefficient n: competitive binding curve, variable slope; for fold lower binding affinity compared to 1e: FA K d ratio
T1 construct: close to the value determined for the complete extracellular domain of nectin-4 (0.94 nM); purchased R&D Systems 2659-N4
T1 sequence (Q96NY8 32-349 limits assumed): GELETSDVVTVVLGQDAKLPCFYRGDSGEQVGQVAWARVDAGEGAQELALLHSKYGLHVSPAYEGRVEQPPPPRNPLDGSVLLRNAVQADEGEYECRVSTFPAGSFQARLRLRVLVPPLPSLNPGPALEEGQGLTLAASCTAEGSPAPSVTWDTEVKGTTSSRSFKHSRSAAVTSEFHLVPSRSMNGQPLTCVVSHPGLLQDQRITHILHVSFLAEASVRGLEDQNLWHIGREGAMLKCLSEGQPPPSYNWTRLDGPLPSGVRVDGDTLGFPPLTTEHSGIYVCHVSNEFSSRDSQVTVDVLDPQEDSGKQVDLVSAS
Experimental: For the competitive binding assay, a constant concentration of probe 1a (1 nM) and of nectin-4 (20 nM) was used, and the concentration of the competitors was varied over at least 3 orders of magnitude. […] Analysis of the curves by nonlinear regression according to dose–response inhibition with variable slope, as implemented in GraphPad Prism (see Experimental section), provided the IC50 value for displacing the probe from nectin-4.
All measurements were conducted at 37 °C over 1200 s (interval of 37 s) using a Cytation 5 multimode microplate reader (BioTek Instruments, Software Gen 5) and black 96-well microplates (BRANDplates with F-bottom wells). Experiments were conducted at an excitation wavelength of 540 nm and an emission wavelength of 620 nm. The FA (r) was calculated by Gen 5 software from the measured parallel and perpendicular fluorescence intensities (I ∥ and I ⊥, respectively) according to eq using a G factor of 0.87 (preset value). r=I∥−G×I⊥/I∥+2G×I⊥ 1
All further data analyses were conducted with GraphPad Prism (version 10.4.1, GraphPad Software, San Diego, CA, USA). The assay mixture (100 μL) contained an aqueous solution (99 μL) and DMSO (1%, v/v, 1 μL).
For the competitive binding assay, fixed concentrations of probe 1a (1 nM) and recombinant human nectin-4 (20 nM) and 10 concentrations of nonlabeled peptide (e.g., […] prepared as serial 1:1 dilution) were used (two separate experiments, each performed in duplicate). The corresponding stock solutions of 1a (2.5 nM) and nectin-4 (50 nM) were prepared in HEPES buffer, while the stock solutions of the nonlabeled peptides were prepared in 5% DMSO/HEPES buffer. nectin-4 (40 μL) and 1a (40 μL) were added to the wells, and the competition was started by the addition of the nonlabeled peptides (20 μL). The FA values were averaged over the time period of 1200 s, and plots of FA = f([peptide]) were analyzed by nonlinear regression according to the model “[inhibitor] vs. response – Variable slope (four parameters)” as implemented in GraphPad Prism. […] Therefore, the lower FA plateau was constrained to the FA value of probe 1a in the absence of nectin-4 and the competitor, which was recorded in each experiment.

[2] = target: T2, immobilized human nectin-4 (Homo sapiens, UniProt Q96NY8); assay: SPR analysis of binding kinetics; details: for kon / koff: ±SEM; for kon: read-out: k on (SPR, *10^6 M^–1 s^–1); for koff: read-out: k off (SPR, *10^–3 s^–1)
T2 construct: close to the value determined for the complete extracellular domain of nectin-4 (0.94 nM); purchased R&D Systems 2659-N4
T2 sequence (Q96NY8 32-349 limits assumed): T1 sequence (Q96NY8 32-349 limits assumed)
Experimental: For this purpose, recombinant human nectin-4 was covalently immobilized on a CM5 sensor chip by EDC/NHS coupling. For analyses, the buffer composition (HBS-P+, pH 7.4) was similar to that of the FA assay; however, DMSO was completely omitted (1% DMSO for the FA assay).
The SPR analyses were carried out on a Biacore T200 (GE Healthcare, Chicago, IL, USA) at 25 °C using CM5 sensor chips (Cytiva) and HBS-P+ as running buffer (Cytiva) at a flow of 30 μL/min unless otherwise specified and a data collection rate of 10 Hz. All flow cells (FC) were normalized, and functionalization was performed using an amine coupling Kit (Cytiva). […] Binding analyses were performed by a single-cycle kinetic on both FC. Two start-up cycles were performed at the beginning of each experimental set, comprising the injection of bicyclic peptide (50 nM) and analysis on both FC, followed by regeneration. Binding analysis for the bicyclic peptides was performed by consecutive injection of five increasing concentrations (120 s contact time for each concentration), followed by 600 s dissociation time and analysis on both FC. The regeneration was performed by sequential injection of 10 mM NaOAc (pH 5.5) for 60 s, washing the needle using HBS-P+, injection of 10 mM NaOAc (pH 5.5) for 60 s, 600 s waiting, four injections of HBS-P+ (60 s), and a final 600 s waiting for stabilization. Blank runs using only buffer (HBS-P+) instead of the sample were carried out to obtain double-referenced chromatograms. Binding analyses were performed unless otherwise stated in a concentration range between 0.16–100 nM and 1.6–1000 nM (5-fold dilution series) and analyzed in triplicate. The data were analyzed using the Biacore Evaluation software 3.2.1. […] Data were fitted to a 1:1 binding model.

[3] = system: HT-1376-derived tumor xenograft model; assay: Small animal PET/CT imaging; parameters: species or system mice; details: mouse, in vivo
Experimental: All animal experiments were performed following the protocols evaluated and approved by the Landesdirektion Sachsen, Referat 25 – Veterinärwesen, Lebensmittelüberwachung and Pharmazie (09105 Chemnitz, Germany, ethics approval number: 25-5131/562/52). HT-1376- and 5637-derived tumor xenograft models were established in NMRI nude mice (Rj: NMRI-Foxn1nu/nu, Charles River Laboratories, Sulzfeld, Germany) by subcutaneous injection of 5 × 10^6 cells in 100 μL of PBS containing 50% (v/v) Matrigel (Corning Life Sciences, Amsterdam, The Netherlands).
When the tumor volume reached 200 mm^3, PET experiments with radiotracers were performed. Radiolabeling of the ligands was performed as described previously with an apparent molar activity of 25 MBq/nmol. The radioligand stock solution (pH 6.5 – 7.5) was diluted in 0.9% NaCl, and 200 μL containing ∼9 MBq ([…]) was injected per mouse intravenously into a lateral tail vein. For blocking of target-specific radioligand binding, 75 nmol of blocking substance (1d) was administered simultaneously with the radioligand. Coincidences were recorded continuously in a 2 h PET-scan starting with the injection. Additionally, a CT scan was performed for anatomical referencing and attenuation correction. PET/CT imaging, reconstruction, and tissue delineation were carried out as described previously.

Row | Hill coefficient n [1] | kon ([2]; HBS-P+ pH 7.4, 25 °C) [M⁻¹ s⁻¹] | koff ([2]; pH 7.4, HBS-P+ pH 7.4, 25 °C) [s⁻¹] | SMILES | further results
1 | 2.37 | – | – | CSCC[C@@H]1NC(=O)[C@@H]2CSCCC(=O)N3CN(CN(C3)C(=O)CCSC[C@H](NC(C)=O)C(=O)N3CCC[C@H]3C(=O)N[C@@H](Cc3cccc4ccccc34)C(=O)N[C@H](CC(=O)O)C(=O)N2)C(=O)CCSC[C@@H](C(N)=O)NC(=O)[C@H](Cc2c[nH]c3ccccc23)NC(=O)[C@@H]2C[C@@H](O)CN2C(=O)[C@@H]2CCCN2C(=O)[C@H]([C@@H](C)O)NC(=O)[C@H](CO)NC(=O)[C@H](Cc2c[nH]c3ccccc23)NC(=O)[C@H](CC(=O)O)NC(=O)[C@H](CCCCNC(=N)N)NC1=O [1d, reference compound] | –
2 | 1.57 | 1.69e+07 | 0.0765 | CSCC[C@@H]1NC(=O)[C@@H]2CSCCC(=O)N3CN(CN(C3)C(=O)CCSC[C@H](NC(=O)CC[C@H](C(=O)O)N3CCN(CC(=O)O)CCN(CC(=O)O)CC3)C(=O)N3CCC[C@H]3C(=O)N[C@@H](Cc3ccc4ccccc4c3)C(=O)N[C@H](CC(=O)O)C(=O)N2)C(=O)CCSC[C@@H](C(N)=O)NC(=O)[C@H](Cc2c[nH]c3ccccc23)NC(=O)[C@@H]2C[C@@H](O)CN2C(=O)[C@@H]2CCCN2C(=O)[C@H]([C@@H](C)O)NC(=O)[C@H](CO)NC(=O)[C@H](Cc2c[nH]c3ccccc23)NC(=O)[C@H](CC(=O)O)NC(=O)[C@H](CCCCNC(=N)N)NC1=O [compound 9] | fold increase in k off vs 1e ([2]; SPR): 18 fold
3 | 1.80 | – | – | CCCC[C@@H]1NC(=O)[C@@H]2CSCCC(=O)N3CN(CN(C3)C(=O)CCSC[C@H](NC(C)=O)C(=O)N3CCC[C@H]3C(=O)N[C@@H](Cc3cccc4ccccc34)C(=O)N[C@H](CC(=O)O)C(=O)N2)C(=O)CCSC[C@@H](C(N)=O)NC(=O)[C@H](Cc2c[nH]c3ccccc23)NC(=O)[C@@H]2C[C@@H](O)CN2C(=O)[C@@H]2CCCN2C(=O)[C@H]([C@@H](C)O)NC(=O)[C@H](CO)NC(=O)[C@H](Cc2c[nH]c3ccccc23)NC(=O)[C@H](CC(=O)O)NC(=O)[C@H](CCCCNC(=N)N)NC1=O [3b] (Ac-CP[1Nal][dD]C[Nle][hArg]DWSTP[Hyp]WC-NH2; linker 1-5-15 via TATA) | –
4 | 1.42 | 3.86e+06 | 0.0247 | CCOC[C@@H]1NC(=O)[C@@H]2CSCCC(=O)N3CN(CN(C3)C(=O)CCSC[C@H](NC(=O)CC[C@H](C(=O)O)N3CCN(CC(=O)O)CCN(CC(=O)O)CC3)C(=O)N3CCC[C@H]3C(=O)N[C@@H](Cc3cccc4ccccc34)C(=O)N[C@H](CC(=O)O)C(=O)N2)C(=O)CCSC[C@@H](C(N)=O)NC(=O)[C@H](Cc2c[nH]c3ccccc23)NC(=O)[C@@H]2C[C@@H](O)CN2C(=O)[C@@H]2CCCN2C(=O)[C@H]([C@@H](C)O)NC(=O)[C@H](CO)NC(=O)[C@H](Cc2c[nH]c3ccccc23)NC(=O)[C@H](CC(=O)O)NC(=O)[C@H](CCCCNC(=N)N)NC1=O [compound 6] (X1-CP[1Nal][dD]CS(Et)[hArg]DWSTP[Hyp]WC-NH2; linker 1-5-15 via TATA) | fold lower binding affinity compared to 1e [1]: approximately 10 fold
5 | – | – | – | COCC[C@@H]1NC(=O)[C@@H]2CSCCC(=O)N3CN(CN(C3)C(=O)CCSC[C@H](NC(=O)CC[C@H](C(=O)O)N3CCN(CC(=O)O)CCN(CC(=O)O)CC3)C(=O)N3CCC[C@H]3C(=O)N[C@@H](Cc3cccc4ccccc34)C(=O)N[C@H](CC(=O)O)C(=O)N2)C(=O)CCSC[C@@H](C(N)=O)NC(=O)[C@H](Cc2c[nH]c3ccccc23)NC(=O)[C@@H]2C[C@@H](O)CN2C(=O)[C@@H]2CCCN2C(=O)[C@H]([C@@H](C)O)NC(=O)[C@H](CO)NC(=O)[C@H](Cc2c[nH]c3ccccc23)NC(=O)[C@H](CC(=O)O)NC(=O)[C@H](CCCCNC(=N)N)NC1=O [[^68Ga]Ga-4] [metal not drawn] (X1-CP[1Nal][dD]C[hSer](Me)[hArg]DWSTP[Hyp]WC-NH2; linker 1-5-15 via TATA) | Percent fast [%] [3]: 78.47 ±3.76%; time of highest tumor uptake [3]: 8.5 min
6 | 2.12 | – | – | CSCC[C@@H]1NC(=O)[C@@H]2CSCCC(=O)N3CN(CN(C3)C(=O)CCSC[C@H](N)C(=O)N3CCC[C@H]3C(=O)N[C@@H](Cc3cccc4ccccc34)C(=O)N[C@H](CC(=O)O)C(=O)N2)C(=O)CCSC[C@@H](C(N)=O)NC(=O)[C@H](Cc2c[nH]c3ccccc23)NC(=O)[C@@H]2C[C@@H](O)CN2C(=O)[C@@H]2CCCN2C(=O)[C@H]([C@@H](C)O)NC(=O)[C@H](CO)NC(=O)[C@H](Cc2c[nH]c3ccccc23)NC(=O)[C@H](CC(=O)O)NC(=O)[C@H](CCCCNC(=N)N)NC1=O [1c] | –
7 | – | – | – | CSCC[C@@H]1NC(=O)[C@@H]2CSCCC(=O)N3CN(CN(C3)C(=O)CCSC[C@H](NC(=O)CC[C@H](C(=O)O)N3CCN(CC(=O)O)CCN(CC(=O)O)CC3)C(=O)N3CCC[C@H]3C(=O)N[C@@H](Cc3cccc4ccccc34)C(=O)N[C@H](CC(=O)O)C(=O)N2)C(=O)CCSC[C@@H](C(N)=O)NC(=O)[C@H](Cc2c[nH]c3ccccc23)NC(=O)[C@@H]2C[C@@H](O)CN2C(=O)[C@@H]2CCCN2C(=O)[C@H]([C@@H](C)O)NC(=O)[C@H](CO)NC(=O)[C@H](Cc2c[nH]c3ccccc23)NC(=O)[C@H](CC(=O)O)NC(=O)[C@H](CCCCNC(=N)N)NC1=O [[^68Ga]Ga-1e] [metal not drawn] | Blood half life fast [3]: 1.51 ± 0.31 min; Blood half life slow [3]: 42.24 ± 4.20 min; Percent fast [%] [3]: 80.73 ±3.35%; body retention at 2 h p.i. [3]: 65%; time of highest tumor uptake [3]: 8.5 min
8 | – | 1.1e+06 | 0.0026 | CSCC[C@@H]1NC(=O)[C@@H]2CSCCC(=O)N3CN(CN(C3)C(=O)CCSC[C@H](NC(=O)CC[C@H](C(=O)O)N3CCN(CC(=O)O)CCN(CC(=O)O)CC3)C(=O)N3CCC[C@H]3C(=O)N[C@@H](Cc3cccc4ccccc34)C(=O)N[C@H](CC(=O)O)C(=O)N2)C(=O)CCSC[C@@H](C(N)=O)NC(=O)[C@H](Cc2c[nH]c3ccccc23)NC(=O)[C@@H]2C[C@@H](O)CN2C(=O)[C@@H]2CCCN2C(=O)[C@H]([C@@H](C)O)NC(=O)[C@H](CO)NC(=O)[C@H](Cc2c[nH]c3ccccc23)NC(=O)[C@H](CC(=O)O)NC(=O)[C@H](CCCCNC(=N)N)NC1=O [natGa-1e, metal not drawn] | –

Row | SMILES | Hill coefficient n [1] | kon ([2]; HBS-P+ pH 7.4, 25 °C) [M⁻¹ s⁻¹] | koff ([2]; pH 7.4, HBS-P+ pH 7.4, 25 °C) [s⁻¹] | further results
9 | CCSC[C@@H]1NC(=O)[C@@H]2CSCCC(=O)N3CN(CN(C3)C(=O)CCSC[C@H](NC(=O)CC[C@H](C(=O)O)N3CCN(CC(=O)O)CCN(CC(=O)O)CC3)C(=O)N3CCC[C@H]3C(=O)N[C@@H](Cc3cccc4ccccc34)C(=O)N[C@H](CC(=O)O)C(=O)N2)C(=O)CCSC[C@@H](C(N)=O)NC(=O)[C@H](Cc2c[nH]c3ccccc23)NC(=O)[C@@H]2C[C@@H](O)CN2C(=O)[C@@H]2CCCN2C(=O)[C@H]([C@@H](C)O)NC(=O)[C@H](CO)NC(=O)[C@H](Cc2c[nH]c3ccccc23)NC(=O)[C@H](CC(=O)O)NC(=O)[C@H](CCCCNC(=N)N)NC1=O [compound 7] (X1-CP[1Nal][dD]CC(Et)[hArg]DWSTP[Hyp]WC-NH2; linker 1-5-15 via TATA) | 1.93 | 4.61e+06 | – | fold lower binding affinity compared to 1e [1]: approximately 10 fold; koff ([2]; HBS-P+ pH 7.4, 25 °C): 0.0268 s⁻¹

From paper PMC12557367, ““Precision on Two Wheels”–Structural Refinement of ^64Cu- and ^68Ga-Labeled Bicyclic Peptides Targeting Nectin‑4 for Improved Tumor Imaging: From Preclinical Development to First-in-Human Application” (Journal of Medicinal Chemistry, 2025)
